14 compounds from patent US8791267B2, “Biaryl PDE4 inhibitors for treating inflammatory, cardiovascular and CNS disorders” (Decode Genetics EHF, priority 2007, dated 2014) can be followed below.

Experiment [1] has as its target PDE4 (Homo sapiens, UniProt Q08499). Nature of the experiment: In-vitro assay for PDE4 enzymes, real-time enzyme-coupled spectrophotometric assay (Table 9). Format: biochemical. Conditions: human PDE4D; activity class, Table 9; read-out: hPDE4D.
Experiment [2] addresses PDE4B (Homo sapiens, UniProt Q07343). Put plainly: In-vitro assay for PDE4 enzymes, real-time enzyme-coupled spectrophotometric assay, PDE4B Activity (Table 10). In kind it is biochemical. Conditions: human PDE4B (hPDE4B), enzyme-coupled spectrophotometric assay; read-out: PDE4B Activity, hPDE4B.

Counter-ions that a name gives are not always drawn. Some results are limits rather than exact numbers.

Sequence of PDE4B (Q07343 whole entry): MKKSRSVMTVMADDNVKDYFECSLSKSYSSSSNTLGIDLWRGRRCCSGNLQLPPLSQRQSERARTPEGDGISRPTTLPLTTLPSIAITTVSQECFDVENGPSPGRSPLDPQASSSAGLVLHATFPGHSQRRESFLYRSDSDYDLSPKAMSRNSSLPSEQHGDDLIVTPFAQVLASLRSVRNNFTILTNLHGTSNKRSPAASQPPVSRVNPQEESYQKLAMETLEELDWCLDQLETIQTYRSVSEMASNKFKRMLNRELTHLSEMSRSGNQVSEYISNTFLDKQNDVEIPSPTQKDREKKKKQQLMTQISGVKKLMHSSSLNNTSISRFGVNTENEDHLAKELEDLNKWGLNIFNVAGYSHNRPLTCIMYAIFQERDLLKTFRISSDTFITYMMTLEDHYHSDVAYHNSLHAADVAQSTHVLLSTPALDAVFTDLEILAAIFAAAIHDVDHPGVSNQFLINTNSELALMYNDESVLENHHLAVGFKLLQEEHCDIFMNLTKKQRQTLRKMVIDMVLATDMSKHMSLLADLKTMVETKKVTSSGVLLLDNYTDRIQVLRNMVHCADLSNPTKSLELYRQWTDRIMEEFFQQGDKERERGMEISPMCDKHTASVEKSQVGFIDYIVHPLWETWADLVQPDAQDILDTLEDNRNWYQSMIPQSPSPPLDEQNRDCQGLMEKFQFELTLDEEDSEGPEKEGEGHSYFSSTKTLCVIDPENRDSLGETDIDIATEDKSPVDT
Sequence of PDE4 (Q08499 whole entry): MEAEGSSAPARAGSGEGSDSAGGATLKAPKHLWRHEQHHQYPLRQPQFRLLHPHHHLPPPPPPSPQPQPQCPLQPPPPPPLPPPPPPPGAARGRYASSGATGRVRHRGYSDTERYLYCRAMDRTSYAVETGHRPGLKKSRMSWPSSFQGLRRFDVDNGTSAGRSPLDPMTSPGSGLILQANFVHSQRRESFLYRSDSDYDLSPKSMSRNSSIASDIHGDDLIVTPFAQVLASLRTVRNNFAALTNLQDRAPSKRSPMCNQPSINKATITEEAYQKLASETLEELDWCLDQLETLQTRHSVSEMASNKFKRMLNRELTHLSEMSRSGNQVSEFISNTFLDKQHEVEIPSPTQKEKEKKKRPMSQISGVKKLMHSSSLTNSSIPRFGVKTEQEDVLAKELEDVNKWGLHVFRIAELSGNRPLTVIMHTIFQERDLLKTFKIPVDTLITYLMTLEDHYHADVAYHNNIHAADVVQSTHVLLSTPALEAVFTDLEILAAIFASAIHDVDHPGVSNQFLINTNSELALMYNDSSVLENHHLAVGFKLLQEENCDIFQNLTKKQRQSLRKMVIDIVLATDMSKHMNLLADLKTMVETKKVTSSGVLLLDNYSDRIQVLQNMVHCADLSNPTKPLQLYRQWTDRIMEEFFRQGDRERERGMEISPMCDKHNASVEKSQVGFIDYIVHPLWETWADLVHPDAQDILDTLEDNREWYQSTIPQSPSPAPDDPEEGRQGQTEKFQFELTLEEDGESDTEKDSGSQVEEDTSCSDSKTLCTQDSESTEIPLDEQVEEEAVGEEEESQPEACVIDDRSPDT

Turning to `CNC(=O)NCc1ccc(Cc2ccc(OC(F)F)c(-c3cccc(Cl)c3)c2)cn1` [P-598, 1-[5-(3′-Chloro-6-difluoromethoxy-biphenyl-3-ylmethyl)-pyridin-2-ylmethyl]-3-methyl-urea hydrochloride], the IC50 in experiment [1] and in experiment [2] was below 5 µM throughout.

On to `COc1ccc(Cc2ccc(CO)nc2)c(F)c1-c1cccc(Cl)c1` [P-599, [5-(3′-Chloro-2-fluoro-6-methoxy-biphenyl-3-ylmethyl)-pyridin-2-yl]-methanol], for which the IC50 in experiment [1] and in experiment [2] was below 5 µM each time.

In the case of `COc1ccc(Cc2ccc(C(C)(C)N)nc2)cc1-c1cccc(Cl)c1` [P-600, hydrochloride], the IC50 in experiment [1] is below 5 µM; in experiment [2] it was 21 to 40 µM.

On to `COc1ccc(COc2ccnc(Cl)c2)cc1-c1cccc(Cl)c1` [P-603], for which the IC50 in experiment [1] and in experiment [2] was below 5 µM in each case.

Turning to `COc1ccc(COc2ccnc(Cl)c2)c(F)c1-c1cccc(Cl)c1` [P-604], the IC50 in experiment [1] and in experiment [2] was below 5 µM in each case.

Turning to `COc1ccc(Cc2ccc(C(C)(C)O)nc2)cc1-c1cccc(Cl)c1` [P-605, 2-[5-(3′-chloro-6-methoxy-biphenyl-3-ylmethyl)-pyridin-2-yl]-propan-2-ol HCl salt], the IC50 in experiment [1] and in experiment [2] was below 5 µM each time.

`COc1ccc(Cc2ccc(C(C)N)nc2)c(F)c1-c1cccc(Cl)c1` (stereo not shown) [P-606, 1-[5-(3′-Chloro-2-fluoro-6-methoxy-biphenyl-3-ylmethyl)-pyridin-2-yl]-ethylamine]: the IC50 in experiment [1] and in experiment [2] was below 5 µM each time.

As to `CC(C)(O)c1ccc(Cc2ccc(OC(F)F)c(-c3cccc(Cl)c3)c2)cn1` [P-610, 2-[5-(3′-Chloro-6-difluoromethoxy-biphenyl-3-ylmethyl)-pyridin-2-yl]-propan-2-ol hydrochloride], the IC50 in experiment [1] and in experiment [2] was below 5 µM in each case.

On to `Nc1ccc(Cc2ccc(OC(F)F)c(-c3cccc(Cl)c3)c2)cn1` [P-611, 5-(3′-Chloro-6-difluoromethoxy-biphenyl-3-ylmethyl)-pyridin-2-ylamine hydrochloride], for which the IC50 in experiment [1] and in experiment [2] was below 5 µM throughout.

Consider `COc1ccc(Cc2ccc(N3CCC[C@H]3C(N)=O)nc2)c(F)c1-c1cccc(Cl)c1` [P-612, (S)-1-[5-(3′-chloro-2-fluoro-6-methoxy-biphenyl-3-ylmethyl)-pyridin-2-yl]-pyrrolidine-2-carboxylic acid amide], for which the IC50 in experiment [1] and in experiment [2] was below 5 µM throughout.

In the case of `CCNC(=O)Nc1ncc(Cc2ccc(OC)c(-c3cccc(Cl)c3)c2F)cn1` [P-619], the IC50 in experiment [1] and in experiment [2] was below 5 µM throughout.

Turning to `CC(=O)Nc1ccc(Cc2ccc(O)c(-c3cccc(Br)c3)c2F)cc1` [P-620], the IC50 was below 5 µM in experiment [1] and 21 to 40 µM in experiment [2].

For the compound `CN(CC(N)=O)c1ccc(Cc2ccc(OC(F)F)c(-c3cccc(Cl)c3)c2)cn1` [P-621, 2-{[5-(3′-Chloro-6-difluoromethoxy-biphenyl-3-ylmethyl)-pyridin-2-yl]-methyl-amino}-acetamide], the IC50 in experiment [1] and in experiment [2] was below 5 µM throughout.

In the case of `COc1ccc(CN2CCNC(=O)C2)c(F)c1-c1cccc(Cl)c1` [P-623], the IC50 is below 5 µM in experiment [1] and 5 to 20 µM in experiment [2].
